DBAASP
≈ marks a conversion by molar mass, not a printed value. One block for each compound: values may come before it.

What was measured:
Test in all cases: ≥ marks a high value that may be exact or a test limit, other limits are often not marked, values filed in µg/mL are converted to µM
[1] = system: Staphylococcus aureus ATCC 29313
[2] = system: Pseudomonas aeruginosa ATCC 27853
[3] = system: Xanthomonas axonopodis pv. citri
[4] = system: Escherichia coli ATCC 25922
[5] = system: Pseudomonas aeruginosa KCTC 1637
[6] = system: Escherichia coli KCTC 1682
[7] = system: Fusarium oxysporum KCTC 6084
Proteus vulgaris = system: Proteus vulgaris
[8] = system: Trichosporon beigelii KCTC 7251
[9] = system: Staphylococcus aureus KCTC 1621
[10] = system: Candida albicans KCTC 7121
[11] = system: Bacillus subtilis KCTC 1918
[12] = system: Bacillus megaterium KCTC 1096
[13] = system: Aspergillus flavus KCTC 7375
[14] = system: Malassezia furfur KCTC 7744
[15] = system: Aspergillus flavus KCTC 1375
Pseudomonas aeruginosa = system: Pseudomonas aeruginosa
Escherichia coli = system: Escherichia coli
Enterococcus faecium = system: Enterococcus faecium
[16] = system: Candida albicans ATCC 90028
[17] = system: Escherichia coli O157:H7 ATCC 43895
[18] = system: Enterococcus faecium ATCC 19434
[19] = system: Staphylococcus aureus ATCC 25923
Staphylococcus aureus = system: Staphylococcus aureus
[20] = system: Escherichia coli ATCC 25726
[21] = system: Klebsiella pneumoniae ATCC 700603
[22] = system: Staphylococcus epidermidis RP62A/1
[23] = system: Staphylococcus epidermidis RP62A
[24] = system: Acinetobacter baumannii NM8
[25] = system: Stenotrophomonas maltophilia B32/4
[26] = system: Pseudomonas aeruginosa IFO 12582
[27] = system: Staphylococcus aureus IFO 12732
[28] = system: Escherichia coli IFO 12734
[29] = system: Bacillus subtilis IFO 3143
Aspergillus fumigatus = system: Aspergillus fumigatus
[30] = system: Staphylococcus aureus ATCC 49230
[31] = system: Staphylococcus epidermidis ATCC 35984
[32] = system: Bacillus subtilis IFO 3513
Escherichia coli OP50 = system: Escherichia coli OP50

Compound: CC[C@H](C)[C@H](NC(=O)[C@H](CCCCN)NC(=O)[C@H](CCCCN)NC(=O)[C@H](Cc1ccccc1)NC(=O)[C@H](CC(C)C)NC(=O)[C@H](CCCCN)NC(=O)[C@H](Cc1c[nH]c2ccccc12)NC(=O)[C@@H](N)CCCCN)C(=O)N[C@@H](CC(C)C)C(=O)N[C@@H](CCCCN)C(=O)N[C@@H](Cc1ccccc1)C(=O)N[C@@H](CC(C)C)C(=O)N[C@@H](Cc1cnc[nH]1)C(=O)N[C@@H](CC(C)C)C(=O)N[C@@H](C)C(=O)N[C@@H](CCCCN)C(=O)N[C@@H](CCCCN)C(=O)N[C@@H](Cc1ccccc1)C(N)=O [KWKLFKKILKFLHLAKKF]
MIC [5]: 3.12 µM (≈ 7.24 µg/mL)
MIC [6]: 12.5 µM (≈ 29 µg/mL)
MIC [7]: ≥ 50 µM
MIC (Proteus vulgaris): 6.25 µM (≈ 14.5 µg/mL)
MIC [8]: 12.5 µM (≈ 29 µg/mL)
MIC [9]: 3.12 µM (≈ 7.24 µg/mL)
MIC [10]: 25 µM (≈ 57.9 µg/mL)
MIC [11]: 1.56 µM (≈ 3.61 µg/mL)
MIC [12]: 1.56 µM (≈ 3.61 µg/mL)
MIC [13]: 25 µM (≈ 57.9 µg/mL)

Compound: CC[C@H](C)[C@H](N)C(=O)N[C@@H](CC(C)C)C(=O)NCC(=O)N[C@@H](CCCCN)C(=O)N[C@@H](CC(C)C)C(=O)N[C@@H](CC(C)C)C(=O)N[C@@H](CCCCN)C(=O)N[C@H](C(=O)N[C@@H](C)C(=O)N[C@@H](C)C(=O)N[C@@H](CCCCN)C(=O)N[C@@H](CC(C)C)C(=O)N[C@@H](CC(C)C)C(=O)N[C@@H](CO)C(=O)N[C@@H](CC(N)=O)C(=O)N[C@@H](CC(C)C)C(N)=O)[C@@H](C)O [ILGKLLKTAAKLLSNL]
MIC [20]: 16 µM (≈ 27.1 µg/mL)
MIC [2]: 8 µM (≈ 13.6 µg/mL)
MIC [16]: 8 µM (≈ 13.6 µg/mL)
MIC [21]: 16 µM (≈ 27.1 µg/mL)
MIC [22]: 2 µM (≈ 3.39 µg/mL)
MIC [23]: 2 µM (≈ 3.39 µg/mL)
MIC [24]: 4 µM (≈ 6.78 µg/mL)
MIC [25]: 4 µM (≈ 6.78 µg/mL)
MIC [19]: 4 µM (≈ 6.78 µg/mL)

Compound: CC(C)C[C@H](NC(=O)[C@H](Cc1ccc(O)cc1)NC(=O)[C@H](Cc1cnc[nH]1)NC(=O)[C@@H](NC(=O)[C@H](CC(C)C)NC(=O)[C@H](C)NC(=O)[C@H](C)NC(=O)[C@H](CCCCN)NC(=O)CNC(=O)[C@@H](NC(=O)[C@H](Cc1cnc[nH]1)NC(=O)[C@H](CCCCN)NC(=O)CNC(=O)[C@@H](NC(=O)[C@H](Cc1cnc[nH]1)NC(=O)[C@H](C)NC(=O)[C@H](C)NC(=O)[C@H](CCCCN)NC(=O)[C@H](CCCCN)NC(=O)[C@H](Cc1ccccc1)NC(=O)[C@H](Cc1ccccc1)NC(=O)[C@H](CO)NC(=O)[C@H](C)NC(=O)[C@H](Cc1c[nH]c2ccccc12)NC(=O)[C@H](C)N)C(C)C)C(C)C)[C@@H](C)O)C(=O)O [AWASFFKKAAHVGKHVGKAALTHYL]
MIC [26]: 23.4 µM (≈ 64 µg/mL)
MIC [27]: 2.92 µM (≈ 8 µg/mL)
MIC [28]: 5.84 µM (≈ 16 µg/mL)
MIC [29]: 2.92 µM (≈ 8 µg/mL)

Compound: CC[C@H](C)[C@H](N)C(=O)N[C@@H](CC(C)C)C(=O)N1CCC[C@H]1C(=O)N[C@@H](Cc1c[nH]c2ccccc12)C(=O)N[C@@H](CCCCN)C(=O)N[C@@H](Cc1c[nH]c2ccccc12)C(=O)N1CCC[C@H]1C(=O)N[C@@H](Cc1c[nH]c2ccccc12)C(=O)N[C@@H](CC(C)C)C(=O)N1CCC[C@H]1C(=O)N[C@@H](Cc1c[nH]c2ccccc12)C(=O)N[C@@H](CCCN=C(N)N)C(=O)N[C@@H](CCCN=C(N)N)C(N)=O [ILPWKWPWLPWRR]
MIC [32]: 0.851 µM (≈ 1.56 µg/mL)
MIC [27]: 0.851 µM (≈ 1.56 µg/mL)
MIC [28]: 6.81 µM (≈ 12.5 µg/mL)

Compound: CC(C)[C@@H]1NC(=O)[C@@H]2CSSC[C@@H]3NC(=O)[C@H](CCCCN)NC(=O)CNC(=O)[C@H](CCC(=O)O)NC(=O)[C@H](CC(=O)O)NC(=O)[C@H]([C@@H](C)O)NC(=O)[C@@H]4CCCN4C(=O)[C@@H](NC(=O)CNC(=O)[C@H](Cc4ccc(O)cc4)NC(=O)[C@@H]4CCCN4C(=O)[C@H](CC(N)=O)NC(=O)[C@H](CCC(=O)O)NC(=O)[C@@H](N)Cc4ccc(O)cc4)CSSC[C@H](NC(=O)[C@H](Cc4ccc(O)cc4)NC(=O)CNC(=O)CNC(=O)[C@H](CCC(=O)O)NC(=O)[C@H](Cc4ccccc4)NC(=O)[C@H](CCC(=O)O)NC(=O)[C@H](CO)NC(=O)[C@H](CC(=O)O)NC(=O)[C@H](CC(N)=O)NC(=O)[C@H](CSSC[C@@H](C(=O)N[C@@H](Cc4ccc(O)cc4)C(=O)N[C@@H](CCCN=C(N)N)C(=O)N[C@H](C(=O)O)[C@@H](C)O)NC1=O)NC(=O)[C@H](CCCN=C(N)N)NC(=O)[C@H](CC(=O)O)NC(=O)[C@H](Cc1ccccc1)NC3=O)C(=O)NCC(=O)NCC(=O)N[C@@H](CO)C(=O)N[C@@H](Cc1ccc(O)cc1)C(=O)N[C@@H](CCCN=C(N)N)C(=O)N[C@@H](C)C(=O)N[C@@H]([C@@H](C)O)C(=O)N2 [YENPYGCPTDEGKCFDRCNDSEFEGGYCGGSYRATCVCYRT]
MIC (Escherichia coli OP50): 30 µM (≈ 138 µg/mL)
MIC (Staphylococcus aureus): 7.5 µM (≈ 34.6 µg/mL)

The next lines start with results.

MIC [2]: 170 µM (≈ 257 µg/mL)
MIC [3]: 5 µM (≈ 7.57 µg/mL)
MIC [4]: 85 µM (≈ 129 µg/mL)
Compound: CC(C)C[C@H](NC(=O)[C@H](CO)NC(=O)[C@H](CCCCN)NC(=O)[C@H](CC(C)C)NC(=O)[C@H](CCCCN)NC(=O)[C@H](CC(=O)O)NC(=O)[C@H](CC(C)C)NC(=O)[C@H](Cc1c[nH]c2ccccc12)NC(=O)[C@H](C)N)C(=O)NCC(=O)N[C@@H](CCCCN)C(=O)N[C@H](C(=O)N[C@H](C(=O)NCC(=O)O)C(C)C)C(C)C [AWLDKLKSLGKVVG]
MIC [1]: ≥ 170 µM

MIC [14]: ≥ 56.6 µM
MIC [15]: ≥ 40 µM
MIC (Pseudomonas aeruginosa): 40 µM (≈ 81.1 µg/mL)
MIC (Escherichia coli): 28.3 µM (≈ 57.4 µg/mL)
MIC [2]: 40 µM (≈ 81.1 µg/mL)
MIC (Enterococcus faecium): ≥ 40 µM
MIC [16]: ≥ 40 µM
MIC [17]: 28.3 µM (≈ 57.4 µg/mL)
MIC [18]: ≥ 40 µM
MIC [19]: 28.3 µM (≈ 57.4 µg/mL)
MIC (Staphylococcus aureus): 28.3 µM (≈ 57.4 µg/mL)
Compound: CC(C)C[C@H](NC(=O)[C@H](Cc1ccc(O)cc1)NC(=O)[C@H](Cc1cnc[nH]1)NC(=O)[C@@H](NC(=O)[C@H](CC(C)C)NC(=O)[C@H](C)NC(=O)[C@H](C)NC(=O)[C@H](CCCCN)NC(=O)CNC(=O)[C@@H](NC(=O)[C@H](Cc1cnc[nH]1)NC(=O)[C@H](CCCCN)NC(=O)CNC(=O)[C@@H](NC(=O)[C@H](Cc1cnc[nH]1)NC(=O)[C@H](C)NC(=O)[C@H](C)NC(=O)[C@H](CCCCN)NC(=O)[C@@H](N)CCCCN)C(C)C)C(C)C)[C@@H](C)O)C(N)=O [KKAAHVGKHVGKAALTHYL]

MIC (Aspergillus fumigatus): 3.6 µM (≈ 6.65 µg/mL)
MIC [2]: 2.17 µM (≈ 4 µg/mL)
MIC [30]: 2.17 µM (≈ 4 µg/mL)
MIC [4]: 8.66 µM (≈ 16 µg/mL)
MIC [31]: 1.08 µM (≈ 2 µg/mL)
Compound: CC(C)C[C@H](NC(=O)[C@H](CC(C)C)NC(=O)[C@H](Cc1ccccc1)NC(=O)[C@H](CC(C)C)NC(=O)[C@H](CC(C)C)NC(=O)[C@@H](N)CC(C)C)C(=O)N[C@@H](CCCCN)C(=O)N[C@@H](CCCCN)C(=O)N[C@@H](CCCN=C(N)N)C(=O)N[C@@H](CCCCN)C(=O)N[C@@H](CCCCN)C(=O)N[C@@H](CCCN=C(N)N)C(=O)N[C@@H](CCCCN)C(=O)N[C@@H](Cc1ccc(O)cc1)C(=O)O [LLLFLLKKRKKRKY]
